One block for each compound: values may come before it.
Test system: 171881-019-R-J1-PDC tumor spheroid viability
Assay: Anticancer human tumor 171881-019-R-J1-PDC patient-derived invasive breast carcinoma cell line growth inhibition [PI3K]
Conditions: spheroids with HUVEC and MSC; for IC50: curve of first compound; for viability, T/C: stronger effect = lower value
Method in brief: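 Combination activity was assessed by viability in multicellular tumor spheroids carrying HUVEC and MSC components. Agents were tested with PI3K inhibitors from a Cmax-based top dose (or 10 microM) downward in half-log increments.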

[1] = second compound 0.0316 µM, first compound 0.0316 µM
[2] = second compound 0.0316 µM, first compound 0.1 µM
[3] = second compound 0.0316 µM, first compound 0.316 µM
[4] = second compound 0.0316 µM, first compound 1 µM
[5] = second compound 0.0316 µM, first compound 3.16 µM
[6] = second compound 0.0316 µM, first compound 10 µM
[7] = second compound 0.1 µM, first compound 0.0316 µM
[8] = second compound 0.1 µM, first compound 0.1 µM
[9] = second compound 0.1 µM, first compound 0.316 µM
[10] = second compound 0.1 µM, first compound 1 µM
[11] = second compound 0.1 µM, first compound 3.16 µM
[12] = second compound 0.1 µM, first compound 10 µM
[13] = second compound 0.316 µM, first compound 0.0316 µM
[14] = second compound 0.316 µM, first compound 0.1 µM
[15] = second compound 0.316 µM, first compound 0.316 µM
[16] = second compound 0.316 µM, first compound 1 µM
[17] = second compound 0.316 µM, first compound 3.16 µM
[18] = second compound 0.316 µM, first compound 10 µM
[19] = second compound 1 µM, first compound 0.0316 µM
[20] = second compound 1 µM, first compound 0.1 µM
[21] = second compound 1 µM, first compound 0.316 µM
[22] = second compound 1 µM, first compound 1 µM
[23] = second compound 1 µM, first compound 3.16 µM
[24] = second compound 1 µM, first compound 10 µM
[25] = second compound 0.00316 µM, first compound 0.0316 µM
[26] = second compound 0.00316 µM, first compound 0.1 µM
[27] = second compound 0.00316 µM, first compound 0.316 µM
[28] = second compound 0.00316 µM, first compound 1 µM
[29] = second compound 0.00316 µM, first compound 3.16 µM
[30] = second compound 0.00316 µM, first compound 10 µM
[31] = second compound 0.01 µM, first compound 0.0316 µM
[32] = second compound 0.01 µM, first compound 0.1 µM
[33] = second compound 0.01 µM, first compound 0.316 µM
[34] = second compound 0.01 µM, first compound 1 µM
[35] = second compound 0.01 µM, first compound 3.16 µM
[36] = second compound 0.01 µM, first compound 10 µM
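Further: spheroids exposed to compound for 7 days before viability read.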
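Wherever viability, T/C is given: 100% = DMSO vehicle-treated spheroids.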

IC50 (second compound 0.0316 µM): 6100 nM
IC50 (second compound 0.1 µM): 3000 nM
IC50 (second compound 0.316 µM): 555 nM
IC50 (second compound 1 µM): < 31.6 nM
IC50 (second compound 3.16 µM): < 31.6 nM
IC50 (second compound 10 µM): < 31.6 nM
SMILES: C[C@@H](NC(=O)c1ncnc(N)c1Cl)c1ncc(C(=O)Nc2cc(C(F)(F)F)c(Cl)cn2)s1 + Cc1nc(NC(=O)N2CCCC2C(N)=O)sc1-c1ccnc(C(C)(C)C(F)(F)F)c1
viability, T/C [1]: 92.6%
viability, T/C [2]: 83.5%
viability, T/C [3]: 84.8%
viability, T/C [4]: 79.5%
viability, T/C [5]: 65%
viability, T/C [6]: 38.7%
viability, T/C [7]: 86.2%
viability, T/C [8]: 82.2%
viability, T/C [9]: 77.9%
viability, T/C [10]: 65.9%
viability, T/C [11]: 49.2%
viability, T/C [12]: 30.7%
viability, T/C [13]: 55.3%
viability, T/C [14]: 56.6%
viability, T/C [15]: 51.8%
viability, T/C [16]: 47.3%
viability, T/C [17]: 31.9%
viability, T/C [18]: 17.5%
viability, T/C [19]: 32.7%
viability, T/C [20]: 33.3%
viability, T/C [21]: 31.1%
viability, T/C [22]: 24.5%
viability, T/C [23]: 17.3%
viability, T/C [24]: 7.53%
viability, T/C (second compound 3.16 µM, first compound 0.0316 µM): 16.2%
viability, T/C (second compound 3.16 µM, first compound 0.1 µM): 15.2%
viability, T/C (second compound 3.16 µM, first compound 0.316 µM): 12.5%
viability, T/C (second compound 3.16 µM, first compound 1 µM): 10.3%
viability, T/C (second compound 3.16 µM, first compound 3.16 µM): 5.29%
viability, T/C (second compound 3.16 µM, first compound 10 µM): 2.14%
viability, T/C (second compound 10 µM, first compound 0.0316 µM): 4.03%
viability, T/C (second compound 10 µM, first compound 0.1 µM): 3.76%
viability, T/C (second compound 10 µM, first compound 0.316 µM): 3.28%
viability, T/C (second compound 10 µM, first compound 1 µM): 2.32%
viability, T/C (second compound 10 µM, first compound 3.16 µM): 1.29%
viability, T/C (second compound 10 µM, first compound 10 µM): 0.49%

IC50 (second compound 0.00316 µM): 74.5 nM
IC50 (second compound 0.01 µM): < 31.6 nM
IC50 (second compound 0.0316 µM): < 31.6 nM
IC50 (second compound 0.1 µM): < 31.6 nM
IC50 (second compound 0.316 µM): < 31.6 nM
IC50 (second compound 1 µM): < 31.6 nM
SMILES: Cn1ncc(Cl)c1-c1cc(C(=O)NC(CN)Cc2cccc(F)c2)sc1Cl (stereo not drawn) + COc1c(OCCCN2CCOCC2)ccc2c3n(c(=NC(=O)c4cnc(N)nc4)nc12)CCN3
viability, T/C [25]: 63.8%
viability, T/C [26]: 46.4%
viability, T/C [27]: 27.6%
viability, T/C [28]: 17.7%
viability, T/C [29]: 11.5%
viability, T/C [30]: 3.72%
viability, T/C [31]: 48.2%
viability, T/C [32]: 37.2%
viability, T/C [33]: 23.7%
viability, T/C [34]: 16.4%
viability, T/C [35]: 9.82%
viability, T/C [36]: 4.66%
viability, T/C [1]: 24.1%
viability, T/C [2]: 22%
viability, T/C [3]: 15.6%
viability, T/C [4]: 11.3%
viability, T/C [5]: 7.85%
viability, T/C [6]: 4.52%
viability, T/C [7]: 8.56%
viability, T/C [8]: 6.38%
viability, T/C [9]: 6.32%
viability, T/C [10]: 5.69%
viability, T/C [11]: 4.46%
viability, T/C [12]: 2.26%
viability, T/C [13]: 2.05%
viability, T/C [14]: 1.87%
viability, T/C [15]: 1.74%
viability, T/C [16]: 1.64%
viability, T/C [17]: 1.47%
viability, T/C [18]: 1.92%
viability, T/C [19]: 0.97%
viability, T/C [20]: 1.14%
viability, T/C [21]: 1.37%
viability, T/C [22]: 0.72%
viability, T/C [23]: 0.77%
viability, T/C [24]: 0.22%

IC50 (second compound 0.00316 µM): 149 nM
IC50 (second compound 0.01 µM): 134 nM
IC50 (second compound 0.0316 µM): 54.2 nM
IC50 (second compound 0.1 µM): < 31.6 nM
IC50 (second compound 0.316 µM): < 31.6 nM
IC50 (second compound 1 µM): < 31.6 nM
SMILES: Cn1ncc(Cl)c1-c1cc(C(=O)NC(CN)Cc2cccc(F)c2)sc1Cl (stereo not drawn) + CC(Nc1ccc2c(c1)OCCn1cc(N3C(=O)OCC3C(F)F)nc1-2)C(N)=O
viability, T/C [25]: 70%
viability, T/C [26]: 59.1%
viability, T/C [27]: 34.8%
viability, T/C [28]: 21.2%
viability, T/C [29]: 12.9%
viability, T/C [30]: 4.9%
viability, T/C [31]: 64.1%
viability, T/C [32]: 58.1%
viability, T/C [33]: 31.4%
viability, T/C [34]: 17.3%
viability, T/C [35]: 12.5%
viability, T/C [36]: 4.16%
viability, T/C [1]: 53.6%
viability, T/C [2]: 46.4%
viability, T/C [3]: 29.3%
viability, T/C [4]: 15.6%
viability, T/C [5]: 11.4%
viability, T/C [6]: 4.17%
viability, T/C [7]: 40.4%
viability, T/C [8]: 33.5%
viability, T/C [9]: 24.6%
viability, T/C [10]: 15.1%
viability, T/C [11]: 10.2%
viability, T/C [12]: 4.94%
viability, T/C [13]: 27.2%
viability, T/C [14]: 26.3%
viability, T/C [15]: 18.1%
viability, T/C [16]: 14.6%
viability, T/C [17]: 9.75%
viability, T/C [18]: 4.08%
viability, T/C [19]: 20.2%
viability, T/C [20]: 18.1%
viability, T/C [21]: 16.4%
viability, T/C [22]: 12.9%
viability, T/C [23]: 8.94%
viability, T/C [24]: 3.85%

IC50 (second compound 0.00316 µM): 304 nM
IC50 (second compound 0.01 µM): 275 nM
IC50 (second compound 0.0316 µM): 65.5 nM
IC50 (second compound 0.1 µM): < 31.6 nM
IC50 (second compound 0.316 µM): < 31.6 nM
IC50 (second compound 1 µM): < 31.6 nM
SMILES: CC(C)NCC(C(=O)N1CCN(c2ncnc3c2C(C)CC3O)CC1)c1ccc(Cl)cc1 (stereo not drawn) + CC(Nc1ccc2c(c1)OCCn1cc(N3C(=O)OCC3C(F)F)nc1-2)C(N)=O
viability, T/C [25]: 84%
viability, T/C [26]: 70%
viability, T/C [27]: 50.4%
viability, T/C [28]: 26.5%
viability, T/C [29]: 13.8%
viability, T/C [30]: 9.57%
viability, T/C [31]: 64.8%
viability, T/C [32]: 69%
viability, T/C [33]: 45.6%
viability, T/C [34]: 24.4%
viability, T/C [35]: 13.4%
viability, T/C [36]: 9.59%
viability, T/C [1]: 52%
viability, T/C [2]: 48.9%
viability, T/C [3]: 38.6%
viability, T/C [4]: 22.3%
viability, T/C [5]: 12.2%
viability, T/C [6]: 8.08%
viability, T/C [7]: 35.4%
viability, T/C [8]: 35.5%
viability, T/C [9]: 31.3%
viability, T/C [10]: 19.5%
viability, T/C [11]: 11.7%
viability, T/C [12]: 7.31%
viability, T/C [13]: 27.1%
viability, T/C [14]: 23.8%
viability, T/C [15]: 23.5%
viability, T/C [16]: 16.4%
viability, T/C [17]: 10.8%
viability, T/C [18]: 7.4%
viability, T/C [19]: 20.5%
viability, T/C [20]: 20%
viability, T/C [21]: 19.1%
viability, T/C [22]: 13.5%
viability, T/C [23]: 9.24%
viability, T/C [24]: 7.07%
